Publication PMC7906020, “Trp-Containing Antibacterial Peptides Impair Quorum Sensing and Biofilm Development in Multidrug-Resistant Pseudomonas aeruginosa and Exhibit Synergistic Effects With Antibiotics” (Frontiers in Microbiology, 2021)
≈ marks a conversion by molar mass, not a printed value. Peptide text beside a SMILES is read from it.

Key:
[1] = system: LasB elastase of MRPA0108; experiment: LasB elastase activity, elastin-Congo red method; type: cell-based, Pseudomonas aeruginosa; conditions: peptide at 1/4 × MIC, 24 h, 37°C; ECR substrate, OD495/OD600; vs control; triplicate
Protocol: The culture supernatant was obtained after centrifugation at 12,000×g for 10 min. (1) LasB elastase activity was measured using elastin-Congo red (ECR) as the substrate, as described by [Pattnaik et al. (2018)]. Briefly, 100 μl of the culture supernatant was added to 900 μl of ECR buffer (100 mM Tris-HCl, 1 mM CaCl2, pH 7.5) containing 10 mg of ECR and then incubated with shaking at 37°C for 18 h. Then, 100 μl of 0.12 M EDTA was added to stop the reaction. The insoluble ECR was removed by centrifugation, and the supernatant absorbance was measured at 495 nm. The optical density (OD) 495 nm/OD 600 nm represents the elastase activity. (2) LasA protease activity was measured as follows ([Pattnaik et al., 2018]): first, the culture supernatant was filtered to remove the bacterial cells, and then 150 μl of sterile-filtered supernatant was added to 2% azocasein (prepared in 50 mM Tris-HCl) and incubated for 4 h at 37°C. Trichloroacetic acid (TCA, 10%) was added to precipitate the undigested substrate. After centrifugation at 10,000 rpm for 10 min, 1 M NaOH was added to the supernatant, and the relative protease activity was measured at OD 440 nm. (3) The pyocyanin assay was based on the absorbance of excreted pyocyanin at 520 nm in an acidic solution ([Kong et al., 2005]). Three milliliters of culture supernatant were mixed with 2 ml of chloroform for 20 min, and then the pyocyanin from the chloroform phase was reextracted using 0.2 M HCl for 15 min to obtain a pink-colored pyocyanin solution. The OD 520 nm was measured to evaluate the change in pyocyanin content. (4) Rhamnolipid detection was carried out as previously described ([Wittgens et al., 2011]). Briefly, 500 μl of culture supernatant was mixed with 500 μl of ethyl acetate and vortexed vigorously for 15 s to extract rhamnolipid. After centrifugation at 10,000×g for 5 min at 4°C, the organic phase containing rhamnolipids was obtained and evaporated at room temperature overnight. […] The absorbance was measured at 420 nm. (5) The level of C4-HSL was quantified by GC-MS as previously described ([Guo et al., 2012]).

[2] = system: rhamnolipid production in MRPA0108; experiment: Rhamnolipid production, orcinol method; type: cell-based, Pseudomonas aeruginosa; conditions: peptide at 1/4 × MIC, 24 h, absorbance 420 nm, vs control, triplicate
Protocol: The culture supernatant was obtained after centrifugation at 12,000×g for 10 min. (1) LasB elastase activity was measured using elastin-Congo red (ECR) as the substrate, as described by [Pattnaik et al. (2018)]. Briefly, 100 μl of the culture supernatant was added to 900 μl of ECR buffer (100 mM Tris-HCl, 1 mM CaCl2, pH 7.5) containing 10 mg of ECR and then incubated with shaking at 37°C for 18 h. Then, 100 μl of 0.12 M EDTA was added to stop the reaction. The insoluble ECR was removed by centrifugation, and the supernatant absorbance was measured at 495 nm. The optical density (OD) 495 nm/OD 600 nm represents the elastase activity. (2) LasA protease activity was measured as follows ([Pattnaik et al., 2018]): first, the culture supernatant was filtered to remove the bacterial cells, and then 150 μl of sterile-filtered supernatant was added to 2% azocasein (prepared in 50 mM Tris-HCl) and incubated for 4 h at 37°C. Trichloroacetic acid (TCA, 10%) was added to precipitate the undigested substrate. After centrifugation at 10,000 rpm for 10 min, 1 M NaOH was added to the supernatant, and the relative protease activity was measured at OD 440 nm. (3) The pyocyanin assay was based on the absorbance of excreted pyocyanin at 520 nm in an acidic solution ([Kong et al., 2005]). Three milliliters of culture supernatant were mixed with 2 ml of chloroform for 20 min, and then the pyocyanin from the chloroform phase was reextracted using 0.2 M HCl for 15 min to obtain a pink-colored pyocyanin solution. The OD 520 nm was measured to evaluate the change in pyocyanin content. (4) Rhamnolipid detection was carried out as previously described ([Wittgens et al., 2011]). Briefly, 500 μl of culture supernatant was mixed with 500 μl of ethyl acetate and vortexed vigorously for 15 s to extract rhamnolipid. After centrifugation at 10,000×g for 5 min at 4°C, the organic phase containing rhamnolipids was obtained and evaporated at room temperature overnight. The rhamnolipid extract dissolved in ultrapure water was mixed with orcinol reagent (0.19% orcinol in 53% H2SO4) and incubated at 80°C for 30 min. The absorbance was measured at 420 nm. (5) The level of C4-HSL was quantified by GC-MS as previously described ([Guo et al., 2012]).

MRPA0108 biofilms = experiment: Confocal laser scanning microscopy of biofilms (LIVE/DEAD staining); type: cell-based, Pseudomonas aeruginosa; conditions: 24 h; for percentage of dead/live cells in biofilm: SYTO9/PI, control 8.7%
Protocol: Biofilms of MRPA0108 were visualized by confocal microscopy. Mid-log growth-phase bacteria were diluted to 1 × 10^7 CFU/ml. […] LB liquid medium and erythromycin were used as negative and positive controls, respectively. After incubation, the supernatant was removed, and the slides were washed and stained in a dark environment for 30 min using a LIVE/DEAD BacLight^TM Bacterial Viability Kit (Invitrogen, Life Technologies, Shanghai, China). The slides were washed three times and imaged with a confocal laser scanning microscope (LSM 710, Carl Zeiss, Germany) with excitation/emission wavelengths of 480/500 and 490/635 nm for SYTO9 and propidium iodide (PI), respectively. SYTO9 was used to indicate live bacteria, and PI was used to mark dead bacteria.

[3] = system: exopolysaccharide production in MRPA0108; experiment: Exopolysaccharide determination, phenol-H2SO4 method; type: cell-based, Pseudomonas aeruginosa; conditions: phenol-H2SO4, 490 nm
Protocol: (§1) Exopolysaccharides were determined using the phenol-H2SO4 method. Briefly, after incubation, the cultures were centrifuged at 10,000 rpm for 15 min, and the pellets were resuspended in high-salt buffer (10 mM KPO4, 5 mM NaCl, 2.5 mM MgSO4, pH 7.0), followed by recentrifugation at 10,000 rpm for 30 min. The resulting supernatant was mixed with three volumes of chilled ethanol (100%) and incubated overnight at 4°C. The precipitated exopolysaccharide was added to a mixture containing cold phenol and H2SO4, and the absorbance of the solution was measured at 490 nm. Alginate content was determined using the H2SO4-carbazole method. Briefly, after incubation, the precooled cultures were mixed with an H2SO4 solution (4:1) and vortexed in ice water, and then 0.2% carbazole dissolved in ethanol was added. The mixture was revortexed and incubated at 55°C for 30 min, and the OD 530 nm was measured.

[4] = system: alginate production in MRPA0108; experiment: Alginate determination, H2SO4-carbazole method; type: cell-based, Pseudomonas aeruginosa; conditions: OD 530 nm
Protocol: as §1

MRPA0108 strain [5] = conditions: previous study, ref Han et al., 2020; cited from earlier work
From the text: Supplement Table_1.docx, table 1: Table S1 Biological characteristics and antibacterial activities of the Trp-containing antimicrobial peptides (32) | column: MIC(μM)

[6] = cited from earlier work
From the text: Supplement Table_1.docx, table 1: Table S1 Biological characteristics and antibacterial activities of the Trp-containing antimicrobial peptides (32) | column: Hemolysis (μM)

MRPA0108 strain [7] = experiment: MIC of antibiotics alone and in combination with 1/4 × MIC peptide; type: cell-based, Pseudomonas aeruginosa; conditions: for fold reduction of MIC of the antibiotic: antibiotic in combination with Trp-containing peptides at 1/4 × MIC, range over the peptides
Protocol: FIGURE 6 Antibacterial activity of antibiotics in combination with the Trp-containing peptides. Bacterial cultures were treated with a series of concentration of antibiotics ceftazidime (A), piperacillin (B), and levofloxacin (C) in the absence (control) and presence of a 1/4 × MIC peptide concentration at 37C overnight. The OD600 was recorded using a microtiter plate reader. The MIC was defined as the lowest antibiotics concentration that inhibited 95% of the bacterial growth. Phenylalanyl arginyl β-naphthylamide (PAβN), a broad-spectrum inhibitor for efflux pump, was used as a positive control. Each data point represents an average of six independent experiments. *P < 0.05 and **P < 0.01 indicate statistically significant differences between antibiotics alone and antibiotics in combination with peptide.

[8] = system: β-lactamase activity in MRPA0108 cells; experiment: β-Lactamase activity assay (nitrocefin kit) in treated cells; type: cell-based, Pseudomonas aeruginosa; conditions: MRPA0108 cells treated with antibiotic alone, compared to control
Protocol: β-lactamase activity was measured by using a β-lactamase assay kit (YIASEN Biotech Co., Ltd., Shanghai, China) according to the manufacturer’s instructions. Briefly, mid-log growth-phase bacteria were diluted to 1 × 10^8 CFU/ml and treated with I1W or L12W at concentrations ranging from 3.13 to 50 μM for 12 h at 37°C. After induction, the cultures were harvested by centrifugation at 5,000 rpm at 4°C, washed three times with PBS buffer (pH 7.2), and then resuspended in the same buffer. The cells were sonicated on ice for 15 min, and the cell lysates containing β-lactamase were collected by centrifugation at 12,000 rpm for 30 min at 4°C. Fifty microliters of the prepared β-lactamase-containing lysates was mixed with 50 μl of assay buffer containing nitrocefin and reacted at room temperature in a dark environment for 20 min. Nitrocefin hydrolysis was measured spectrophotometrically at 490 nm. Concurrently, the total protein content was determined with a Bradford assay using the same supernatant. One milliunit of β-lactamase is defined as 1 nanomole of nitrocefin hydrolyzed per minute per microgram of protein.

[9] = lowest concentration inhibiting 95% of growth, overnight 37°C, six experiments

Structure (SMILES): CC[C@H](C)[C@H](N)C(=O)N[C@@H](CCCCN)C(=O)N[C@@H](CCCCN)C(=O)N[C@@H](Cc1c[nH]c2ccccc12)C(=O)N[C@@H](CC(C)C)C(=O)N[C@@H](CO)C(=O)N[C@@H](CCCCN)C(=O)N[C@H](C(=O)N[C@@H](CCCCN)C(=O)N[C@@H](CCCCN)C(=O)N[C@@H](CC(C)C)C(=O)N[C@@H](CC(C)C)C(=O)N[C@@H](CCCCN)C(N)=O)[C@@H](C)CC [I4W] (H-IKKWLSKIKKLLK-NH2; N-terminus and C-terminus assumed)
- decrease of LasB elastase activity [1]: 22.3%
- inhibition of rhamnolipid production [2]: 43.9%
- average biofilm thickness (MRPA0108 biofilms; after treatment with low concentrations of peptide (1 × MIC or 2 × MIC), 37°C, control biofilm 6 μm): 1.5–2.5 μm
- percentage of dead/live cells in biofilm (MRPA0108 biofilms; peptide at 1 × MIC): 31.2%
- percentage of dead/live cells in biofilm (MRPA0108 biofilms; peptide at 2 × MIC): 41.7%
- reduction of exopolysaccharide production ([3]; peptide at 1/4 × MIC, overnight 37°C): 25.0%
- reduction of exopolysaccharide production ([3]; peptide at 1 × MIC): 65.2%
- reduction of exopolysaccharide production ([3]; peptide concentration increased onefold from 1/4 × MIC): 42.4%
- inhibition of alginate production ([4]; peptide at 1/4 × MIC): 47%
- inhibition of alginate production ([4]; peptide at 1 × MIC): 68%
- MIC (MRPA0108 strain [5]): 6.25 µM (≈ 10.2 µg/mL)
- Hemolysis [6]: > 500 µM

Structure (SMILES): CC(C)(O/N=C(\C(=O)N[C@@H]1C(=O)N2C(C(=O)[O-])=C(C[n+]3ccccc3)CS[C@H]12)c1csc(N)n1)C(=O)O [ceftazidime]
- fold reduction of MIC of the antibiotic (MRPA0108 strain [7]): 8–32 fold
- MIC of antibiotic alone (MRPA0108 strain [7]; [9]): 30 µM
- MIC of antibiotic in combination with 1/4 × MIC L12W (MRPA0108 strain [7]; [9]): 0.94 µM
- increase of β-lactamase activity [8]: fourfold

Structure (SMILES): C[C@H]1COc2c(N3CCN(C)CC3)c(F)cc3c(=O)c(C(=O)O)cn1c23 [levofloxacin]
- fold reduction of MIC of the antibiotic (MRPA0108 strain [7]): 0–4 fold

Structure (SMILES): CCN1CCN(C(=O)N[C@@H](C(=O)N[C@@H]2C(=O)N3[C@@H]2SC(C)(C)[C@@H]3C(=O)O)c2ccccc2)C(=O)C1=O [piperacillin, reference compound]
- fold reduction of MIC of the antibiotic (MRPA0108 strain [7]): 2–11 fold
- increase of β-lactamase activity [8]: 1.8 fold
